2 compounds from ChEMBL document CHEMBL5647690, “Inhibition of demethylases by GSK-J1/J4” (Nature, 2014) can be followed below.

The target in assay [1] is T1, Lysine-specific demethylase 2B (Homo sapiens, UniProt Q8NHM5).
T1 sequence (Q8NHM5 whole entry): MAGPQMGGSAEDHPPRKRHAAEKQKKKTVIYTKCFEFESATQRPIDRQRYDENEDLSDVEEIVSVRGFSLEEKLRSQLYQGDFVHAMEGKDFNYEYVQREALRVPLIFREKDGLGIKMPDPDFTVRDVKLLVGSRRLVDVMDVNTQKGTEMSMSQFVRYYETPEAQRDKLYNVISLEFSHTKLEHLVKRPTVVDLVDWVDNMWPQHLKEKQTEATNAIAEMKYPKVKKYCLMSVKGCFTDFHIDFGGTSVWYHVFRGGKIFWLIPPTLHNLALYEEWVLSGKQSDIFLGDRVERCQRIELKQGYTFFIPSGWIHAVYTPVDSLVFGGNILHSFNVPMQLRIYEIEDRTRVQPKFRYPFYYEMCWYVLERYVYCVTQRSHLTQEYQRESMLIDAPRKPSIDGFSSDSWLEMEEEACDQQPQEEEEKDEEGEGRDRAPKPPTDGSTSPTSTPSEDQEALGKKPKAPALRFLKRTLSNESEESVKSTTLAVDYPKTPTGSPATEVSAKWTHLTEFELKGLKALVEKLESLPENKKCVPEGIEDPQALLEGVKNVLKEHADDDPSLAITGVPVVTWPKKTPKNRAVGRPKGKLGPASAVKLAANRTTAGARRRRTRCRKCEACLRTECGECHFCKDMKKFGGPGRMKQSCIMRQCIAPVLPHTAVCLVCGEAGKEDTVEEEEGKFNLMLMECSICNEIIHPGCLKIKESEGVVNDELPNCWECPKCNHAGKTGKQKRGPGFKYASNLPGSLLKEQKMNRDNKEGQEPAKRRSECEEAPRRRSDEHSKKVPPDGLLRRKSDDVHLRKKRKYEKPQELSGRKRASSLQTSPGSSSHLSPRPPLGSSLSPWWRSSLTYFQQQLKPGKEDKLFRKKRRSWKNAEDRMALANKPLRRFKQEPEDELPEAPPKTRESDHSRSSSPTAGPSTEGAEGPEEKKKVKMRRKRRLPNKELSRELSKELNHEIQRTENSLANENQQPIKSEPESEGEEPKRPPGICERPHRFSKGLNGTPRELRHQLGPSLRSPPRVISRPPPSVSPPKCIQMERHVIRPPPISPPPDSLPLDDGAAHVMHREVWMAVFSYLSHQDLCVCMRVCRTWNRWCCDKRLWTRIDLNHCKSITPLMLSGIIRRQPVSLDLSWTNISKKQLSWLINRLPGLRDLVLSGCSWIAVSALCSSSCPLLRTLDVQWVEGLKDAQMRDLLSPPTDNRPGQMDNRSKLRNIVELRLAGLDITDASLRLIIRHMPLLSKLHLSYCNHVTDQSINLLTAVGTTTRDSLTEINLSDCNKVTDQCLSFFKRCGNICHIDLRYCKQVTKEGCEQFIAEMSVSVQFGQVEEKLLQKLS
Description: Inhibition of KDM2B (1 to 650 residues)(unknown origin) by Alphalisa assay.

Assay [2] addresses T2, Lysine-specific demethylase 4C (Homo sapiens, UniProt Q9H3R0).
T2 sequence (Q9H3R0 whole entry): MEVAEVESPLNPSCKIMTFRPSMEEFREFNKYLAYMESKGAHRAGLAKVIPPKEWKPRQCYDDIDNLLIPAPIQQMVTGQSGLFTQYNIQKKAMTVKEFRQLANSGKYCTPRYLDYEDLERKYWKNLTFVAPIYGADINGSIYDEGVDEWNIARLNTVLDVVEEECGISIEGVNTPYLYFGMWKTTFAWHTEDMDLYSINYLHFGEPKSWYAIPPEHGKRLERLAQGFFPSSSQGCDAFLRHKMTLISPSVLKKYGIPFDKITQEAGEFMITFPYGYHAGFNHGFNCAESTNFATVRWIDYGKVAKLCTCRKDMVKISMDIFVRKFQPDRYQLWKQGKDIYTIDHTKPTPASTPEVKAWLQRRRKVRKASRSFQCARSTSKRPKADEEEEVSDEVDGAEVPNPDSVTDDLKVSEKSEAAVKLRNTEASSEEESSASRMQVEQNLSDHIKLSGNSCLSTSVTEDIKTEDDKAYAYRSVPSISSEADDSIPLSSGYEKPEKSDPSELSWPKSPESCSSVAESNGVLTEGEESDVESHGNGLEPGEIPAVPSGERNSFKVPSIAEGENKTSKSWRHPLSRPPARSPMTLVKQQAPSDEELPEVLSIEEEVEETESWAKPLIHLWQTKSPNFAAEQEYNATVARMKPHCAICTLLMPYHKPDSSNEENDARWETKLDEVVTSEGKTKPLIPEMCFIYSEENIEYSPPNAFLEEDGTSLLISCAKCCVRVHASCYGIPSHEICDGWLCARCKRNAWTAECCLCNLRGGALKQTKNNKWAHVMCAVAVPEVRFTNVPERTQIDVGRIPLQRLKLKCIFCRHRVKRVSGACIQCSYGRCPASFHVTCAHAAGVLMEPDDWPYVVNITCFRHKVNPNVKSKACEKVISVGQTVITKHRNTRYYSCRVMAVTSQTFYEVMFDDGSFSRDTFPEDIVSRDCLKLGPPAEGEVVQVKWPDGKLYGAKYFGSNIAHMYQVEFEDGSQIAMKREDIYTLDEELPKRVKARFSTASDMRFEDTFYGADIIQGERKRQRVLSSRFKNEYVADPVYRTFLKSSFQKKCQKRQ
Description: Inhibition of KDM4C (1 to 349 residues)(unknown origin) by Alphalisa assay.

Assay [3] deals with Lysine-specific demethylase 5C (Homo sapiens, UniProt P41229). Description: Inhibition of KDM5C (2 to 1560 residues)(unknown origin) by Alphalisa assay.
Assay [4] concerns the target Histone lysine demethylase PHF8 (Homo sapiens, UniProt Q9UPP1). Description: Inhibition of PHF8 (1 to 1024 residues)(unknown origin) by Alphalisa assay.

Histone lysine demethylase PHF8, sequence (Q9UPP1 whole entry, the tested form may be a part): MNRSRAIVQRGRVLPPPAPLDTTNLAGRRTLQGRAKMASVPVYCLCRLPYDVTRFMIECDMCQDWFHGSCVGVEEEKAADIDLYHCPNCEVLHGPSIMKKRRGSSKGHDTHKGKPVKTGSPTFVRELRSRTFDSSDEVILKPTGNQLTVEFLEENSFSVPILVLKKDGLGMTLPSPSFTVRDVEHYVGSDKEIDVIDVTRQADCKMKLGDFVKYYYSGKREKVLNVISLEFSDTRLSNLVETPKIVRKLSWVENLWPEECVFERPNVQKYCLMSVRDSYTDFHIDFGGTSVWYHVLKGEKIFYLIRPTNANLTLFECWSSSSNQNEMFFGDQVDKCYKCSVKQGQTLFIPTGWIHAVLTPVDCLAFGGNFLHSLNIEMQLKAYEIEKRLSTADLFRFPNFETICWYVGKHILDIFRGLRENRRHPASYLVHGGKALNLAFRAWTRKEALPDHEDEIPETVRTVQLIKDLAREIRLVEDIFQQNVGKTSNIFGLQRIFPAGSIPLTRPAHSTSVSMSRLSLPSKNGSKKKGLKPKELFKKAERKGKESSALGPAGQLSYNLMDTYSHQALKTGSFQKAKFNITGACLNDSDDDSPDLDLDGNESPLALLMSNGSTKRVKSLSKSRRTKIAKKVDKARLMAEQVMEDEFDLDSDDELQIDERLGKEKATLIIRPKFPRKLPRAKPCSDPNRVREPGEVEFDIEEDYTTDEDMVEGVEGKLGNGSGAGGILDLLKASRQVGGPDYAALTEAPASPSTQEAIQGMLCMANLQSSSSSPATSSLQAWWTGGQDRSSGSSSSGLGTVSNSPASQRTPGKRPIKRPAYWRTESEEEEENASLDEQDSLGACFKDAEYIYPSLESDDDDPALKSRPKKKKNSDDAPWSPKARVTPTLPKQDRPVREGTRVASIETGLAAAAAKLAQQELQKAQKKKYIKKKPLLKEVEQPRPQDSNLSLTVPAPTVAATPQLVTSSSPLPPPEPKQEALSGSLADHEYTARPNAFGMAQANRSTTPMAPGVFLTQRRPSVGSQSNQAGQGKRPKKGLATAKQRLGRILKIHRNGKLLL
Lysine-specific demethylase 5C, sequence (P41229 whole entry, the tested form may be a part): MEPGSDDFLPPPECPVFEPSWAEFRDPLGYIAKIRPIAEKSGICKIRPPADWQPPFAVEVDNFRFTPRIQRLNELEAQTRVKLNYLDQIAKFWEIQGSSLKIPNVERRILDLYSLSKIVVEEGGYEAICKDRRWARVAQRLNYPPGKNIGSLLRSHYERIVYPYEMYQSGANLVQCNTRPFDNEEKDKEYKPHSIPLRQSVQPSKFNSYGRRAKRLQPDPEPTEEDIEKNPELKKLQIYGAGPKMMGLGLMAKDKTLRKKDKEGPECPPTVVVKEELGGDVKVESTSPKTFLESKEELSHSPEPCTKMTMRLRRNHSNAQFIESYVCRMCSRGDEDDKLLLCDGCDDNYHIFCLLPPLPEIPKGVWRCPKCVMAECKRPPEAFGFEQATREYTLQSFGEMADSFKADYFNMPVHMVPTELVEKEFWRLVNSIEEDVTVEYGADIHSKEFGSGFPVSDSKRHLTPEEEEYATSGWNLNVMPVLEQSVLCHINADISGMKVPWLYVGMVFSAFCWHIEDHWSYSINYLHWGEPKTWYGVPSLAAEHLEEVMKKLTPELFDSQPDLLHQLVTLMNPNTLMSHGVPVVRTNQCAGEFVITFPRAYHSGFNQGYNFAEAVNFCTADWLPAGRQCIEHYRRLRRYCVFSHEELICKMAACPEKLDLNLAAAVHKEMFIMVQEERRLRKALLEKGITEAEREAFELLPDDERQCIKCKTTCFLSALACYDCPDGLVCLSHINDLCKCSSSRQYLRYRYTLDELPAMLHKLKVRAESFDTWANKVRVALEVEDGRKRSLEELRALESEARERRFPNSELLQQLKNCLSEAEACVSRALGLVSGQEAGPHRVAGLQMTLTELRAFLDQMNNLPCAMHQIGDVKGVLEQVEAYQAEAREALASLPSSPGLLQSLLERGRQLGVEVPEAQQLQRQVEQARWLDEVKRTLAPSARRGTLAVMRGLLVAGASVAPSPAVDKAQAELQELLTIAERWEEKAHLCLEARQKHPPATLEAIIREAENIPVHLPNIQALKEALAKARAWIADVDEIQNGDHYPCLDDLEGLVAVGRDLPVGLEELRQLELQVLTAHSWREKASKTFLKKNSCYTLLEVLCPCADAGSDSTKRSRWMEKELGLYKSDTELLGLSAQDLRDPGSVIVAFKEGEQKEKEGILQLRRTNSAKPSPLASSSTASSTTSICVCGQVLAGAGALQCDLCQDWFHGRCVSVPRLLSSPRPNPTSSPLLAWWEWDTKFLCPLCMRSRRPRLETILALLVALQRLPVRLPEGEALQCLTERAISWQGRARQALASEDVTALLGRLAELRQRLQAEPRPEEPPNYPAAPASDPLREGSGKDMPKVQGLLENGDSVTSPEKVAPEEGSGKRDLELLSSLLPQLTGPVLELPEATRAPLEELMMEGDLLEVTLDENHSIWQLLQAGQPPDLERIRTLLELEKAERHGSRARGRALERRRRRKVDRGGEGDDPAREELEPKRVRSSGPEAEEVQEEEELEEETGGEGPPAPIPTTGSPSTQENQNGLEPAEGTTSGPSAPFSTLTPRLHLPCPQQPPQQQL

As for `O=C(O)CCNc1cc(N2CCc3ccccc3CC2)nc(-c2ccccn2)n1`, the half-inhibitory concentration (IC50) in assay [1] was 21 µM; in assay [2], 34 µM; in assay [3], 0.55 µM; in assay [4] it was 28 µM.

Turning to `CCOC(=O)CCNc1cc(N2CCc3ccccc3CC2)nc(-c2ccccn2)n1`, the IC50 worked out at 2.1 µM in assay [1], 5.5 µM in assay [2], 15 µM in assay [3] and 4.2 µM in assay [4].
